Measurements as given in patent publication US11684614B2, “Formulations of hydroxypyridonate actinide/lanthanide decorporation agents” (priority 2017, dated 2023).

Assay: Repeated-treatment efficacy for removing an intravenous dose of 238Pu (excretion, tissue retention, clinical observations), female and male arms
Assay type: in vivo, Swiss-Webster mice
Details: male mice; for 238Pu percent increase in excretion, Total Excretion / 238Pu percent increase in excretion, Total Feces / 238Pu percent increase in excretion, Total Urine: over untreated control group; for ^238Pu percent tissue reduction, GI Trace / ^238Pu percent tissue reduction, Kidney / ^238Pu percent tissue reduction, Liver / ^238Pu percent tissue reduction, Soft Tissue / ^238Pu percent tissue reduction, Total Body / ^238Pu percent tissue reduction, Total Bone / ^238Pu percent tissue reduction, GI Tract: vs untreated control group
Method: The objective of this study was to characterize the efficacy of 3,4,3-L1(1,2-HOPO) at enhancing elimination from an internal plutonium burden in female and male Swiss-Webster mice administered a soluble citrate complex of ^238Pu and treated multiple times, starting at 24 hours after the exposure. Efficacy was evaluated by comparing the tissue contents, urinary and fecal excretions of ^238Pu in treated animals versus untreated animals.
The medical countermeasure 3,4,3-L1(1,2-HOPO) was administered parenterally (ip) or orally (po) via consecutive injections or gavages (six daily or twelve twice daily) starting at 24 hours post contamination at the following four selected doses: 30 μmol/kg ip, 150 μmol/kg po, 300 μmol/kg po, and 600 μmol/kg po (equivalent to respective approximate human doses range of […], using the accepted conversion system of mouse doses into human equivalent doses—HED—based on body surface area). Oral doses also included the permeability enhancer selected during formulation development work.
• Challenge isotope: ^238Pu • Challenge dose: 25 nCi (i.e., approximately 0.8 μCi/kg) • Route of contamination: Intravenous (iv) tail-vein • Route of treatment: Intraperitoneal Injection (ip) or Oral (po) • Frequency of treatment: Multiple (once- or twice-daily for 6 days) doses, starting 24 hr postcontamination • Treatment dose calculation: Dose calculations (mg/kg or μmol/kg) for the decorporation agent were based on the individual body weight measured after contamination. • Study Duration: 11 days, in-life
c. […] Test article and control dose formulations were prepared within 1 day of dose administration, by weighing out the appropriate amount of test article, dispersing in vehicle. For ip solutions, the test article was used alone, while for oral suspensions, a mixture of test article and excipient (90:10, w:w) was used. The pH was adjusted to 7.0-7.4 for ip administration and 5.0-5.5 for oral administration with sterile NaOH. Dose formulations were prepared at room temperature and filter-sterilized. • Storage: 2-8° C.; refrigerated; protected from light. • Characterization: The concentration of each test article formulation was verified by high-performance liquid chromatography-mass spectrometry. • Test Article Handling: Test, reference, and control article formulations were handled with the use of eye protection, gloves, and a protective laboratory coat. • Correct Dose Assurance: The test article was weighed with calibrated balances. The administration of each dose formulation was properly documented, and the amount administered to each animal recorded.
e. Experimental Procedures (In-Life Evaluations and Euthanasia) • Contamination: Single administration by intravenous (iv) tail-vein injection (0.2 mL injection volume) under isoflurane anesthesia. Three standard 0.2 mL injections were performed into polyethylene bottles and pre-loaded with aliquots of concentrated nitric acid on each injection day. Six female and six male mice were culled for necropsy 1 hr post-contamination and were used as standards. A11 standards were processed and counted together with the final samples to allow verification of the contamination dose. • Dose Administration: Single administration by intraperitoneal injection (ip) or oral gavage (po) under isoflurane anesthesia. • Mortality/Morbidity: Assessed at least once daily. • Clinical Observations: Recorded once daily (4 hr post-dose on day of treatment), or more often as clinical signs warranted. […]

[1] = 30 μmol/kg, IP, 11-day necropsy
[2] = 150 μmol/kg, 2 doses PO, 7-day necropsy
[3] = 300 μmol/kg, 1 dose PO, 7-day necropsy
[4] = 300 μmol/kg, 1 dose PO, 11-day necropsy
[5] = 300 μmol/kg, 2 doses PO, 7-day necropsy
[6] = 300 μmol/kg, PO, 11-day necropsy
[7] = 600 μmol/kg, 1 dose PO, 7-day necropsy
[8] = 600 μmol/kg, 1 dose PO, 11-day necropsy
[9] = 600 μmol/kg, PO, 11-day necropsy
[10] = 600 μmol/kg, dose PO, 7-day necropsy

Structure (SMILES): O=C(NCCCN(CCCCN(CCCNC(=O)c1cccc(=O)n1O)C(=O)c1cccc(=O)n1O)C(=O)c1cccc(=O)n1O)c1cccc(=O)n1O [Formulation 343]
- ^238Pu excretion, Total Excretion, Avg [1]: 79.89 percent recovered dose
- ^238Pu excretion, Total Feces, Avg [1]: 48.24 percent recovered dose
- ^238Pu excretion, Total Urine, Avg [1]: 31.65 percent recovered dose
- ^238Pu retention, GI Tract, Avg [1]: 0.53 percent recovered dose
- ^238Pu retention, Kidney, Avg [1]: 0.12 percent recovered dose
- ^238Pu retention, Liver, Avg [1]: 2.42 percent recovered dose
- ^238Pu retention, Soft Tissue, Avg [1]: 1.14 percent recovered dose
- ^238Pu retention, Total Body, Avg [1]: 20.11 percent recovered dose
- ^238Pu retention, Total Bone, Avg [1]: 15.90 percent recovered dose
- 238Pu percent increase in excretion, Total Excretion [1]: 168.28%
- 238Pu percent increase in excretion, Total Feces [1]: 188.96%
- 238Pu percent increase in excretion, Total Urine [1]: 144.22%
- ^238Pu percent tissue reduction, GI Trace [1]: 72.95%
- ^238Pu percent tissue reduction, Kidney [1]: 65.35%
- ^238Pu percent tissue reduction, Liver [1]: 85.55%
- ^238Pu percent tissue reduction, Soft Tissue [1]: 67.92%
- ^238Pu percent tissue reduction, Total Body [1]: 61.72%
- ^238Pu percent tissue reduction, Total Bone [1]: 46.83%
- ^238Pu excretion, Total Excretion, Avg [2]: 53.58 percent recovered dose
- ^238Pu excretion, Total Feces, Avg [2]: 30.26 percent recovered dose
- ^238Pu excretion, Total Urine, Avg [2]: 23.32 percent recovered dose
- ^238Pu retention, GI Tract, Avg [2]: 1.67 percent recovered dose
- ^238Pu retention, Kidney, Avg [2]: 0.31 percent recovered dose
- ^238Pu retention, Liver, Avg [2]: 21.40 percent recovered dose
- ^238Pu retention, Soft Tissue, Avg [2]: 3.16 percent recovered dose
- ^238Pu retention, Total Body, Avg [2]: 46.42 percent recovered dose
- ^238Pu retention, Total Bone, Avg [2]: 19.87 percent recovered dose
- 238Pu percent increase in excretion, Total Excretion [2]: 149.61%
- 238Pu percent increase in excretion, Total Feces [2]: 174.63%
- 238Pu percent increase in excretion, Total Urine [2]: 126.15%
- ^238Pu percent tissue reduction, GI Tract [2]: −17.71%
- ^238Pu percent tissue reduction, Kidney [2]: −4.19%
- ^238Pu percent tissue reduction, Liver [2]: 18.09%
- ^238Pu percent tissue reduction, Soft Tissue [2]: −5.31%
- ^238Pu percent tissue reduction, Total Body [2]: 27.68%
- ^238Pu percent tissue reduction, Total Bone [2]: 40.39%
- ^238Pu excretion, Total Excretion, Avg [3]: 64.11 percent recovered dose
- ^238Pu excretion, Total Feces, Avg [3]: 40.12 percent recovered dose
- ^238Pu excretion, Total Urine, Avg [3]: 24.00 percent recovered dose
- ^238Pu retention, GI Tract, Avg [3]: 1.23 percent recovered dose
- ^238Pu retention, Kidney, Avg [3]: 0.17 percent recovered dose
- ^238Pu retention, Liver, Avg [3]: 12.68 percent recovered dose
- ^238Pu retention, Soft Tissue, Avg [3]: 1.75 percent recovered dose
- ^238Pu retention, Total Body, Avg [3]: 35.89 percent recovered dose
- ^238Pu retention, Total Bone, Avg [3]: 20.06 percent recovered dose
- 238Pu percent increase in excretion, Total Excretion [3]: 162.02%
- 238Pu percent increase in excretion, Total Feces [3]: 225.83%
- 238Pu percent increase in excretion, Total Urine [3]: 110.04%
- ^238Pu percent tissue reduction, GI Tract [3]: 21.76%
- ^238Pu percent tissue reduction, Kidney [3]: 40.67%
- ^238Pu percent tissue reduction, Liver [3]: 43.47%
- ^238Pu percent tissue reduction, Soft Tissue [3]: 34.62%
- ^238Pu percent tissue reduction, Total Body [3]: 40.61%
- ^238Pu percent tissue reduction, Total Bone [3]: 40.06%
- ^238Pu retention, GI Tract, Avg [4]: 1.03 percent recovered dose
- ^238Pu retention, Kidney, Avg [4]: 0.15 percent recovered dose
- ^238Pu retention, Liver, Avg [4]: 9.46 percent recovered dose
- ^238Pu retention, Soft Tissue, Avg [4]: 2.20 percent recovered dose
- ^238Pu retention, Total Body, Avg [4]: 33.83 percent recovered dose
- ^238Pu retention, Total Bone, Avg [4]: 20.99 percent recovered dose
- ^238Pu percent tissue reduction, GI Trace [4]: 30.01%
- ^238Pu percent tissue reduction, Kidney [4]: 45.60%
- ^238Pu percent tissue reduction, Liver [4]: 48.32%
- ^238Pu percent tissue reduction, Soft Tissue [4]: 22.51%
- ^238Pu percent tissue reduction, Total Body [4]: 36.96%
- ^238Pu percent tissue reduction, Total Bone [4]: 30.34%
- ^238Pu excretion, Total Excretion, Avg [5]: 59.71 percent recovered dose
- ^238Pu excretion, Total Feces, Avg [5]: 34.14 percent recovered dose
- ^238Pu excretion, Total Urine, Avg [5]: 25.57 percent recovered dose
- ^238Pu retention, GI Tract, Avg [5]: 1.45 percent recovered dose
- ^238Pu retention, Kidney, Avg [5]: 0.18 percent recovered dose
- ^238Pu retention, Liver, Avg [5]: 15.12 percent recovered dose
- ^238Pu retention, Soft Tissue, Avg [5]: 2.41 percent recovered dose
- ^238Pu retention, Total Body, Avg [5]: 40.29 percent recovered dose
- ^238Pu retention, Total Bone, Avg [5]: 21.12 percent recovered dose
- 238Pu percent increase in excretion, Total Excretion [5]: 166.71%
- 238Pu percent increase in excretion, Total Feces [5]: 197.01%
- 238Pu percent increase in excretion, Total Urine [5]: 138.32%
- ^238Pu percent tissue reduction, GI Tract [5]: −2.24%
- ^238Pu percent tissue reduction, Kidney [5]: 39.84%
- ^238Pu percent tissue reduction, Liver [5]: 42.11%
- ^238Pu percent tissue reduction, Soft Tissue [5]: 19.73%
- ^238Pu percent tissue reduction, Total Body [5]: 37.23%
- ^238Pu percent tissue reduction, Total Bone [5]: 36.64%
- ^238Pu excretion, Total Excretion, Avg [6]: 66.17 percent recovered dose
- ^238Pu excretion, Total Feces, Avg [6]: 40.33 percent recovered dose
- ^238Pu excretion, Total Urine, Avg [6]: 25.84 percent recovered dose
- 238Pu percent increase in excretion, Total Excretion [6]: 142.80%
- 238Pu percent increase in excretion, Total Feces [6]: 180.35%
- 238Pu percent increase in excretion, Total Urine [6]: 107.78%
- ^238Pu excretion, Total Excretion, Avg [7]: 65.66 percent recovered dose
- ^238Pu excretion, Total Feces, Avg [7]: 40.53 percent recovered dose
- ^238Pu excretion, Total Urine, Avg [7]: 25.13 percent recovered dose
- 238Pu percent increase in excretion, Total Excretion [7]: 165.93%
- 238Pu percent increase in excretion, Total Feces [7]: 228.14%
- 238Pu percent increase in excretion, Total Urine [7]: 115.25%
- ^238Pu percent tissue reduction, GI Tract [7]: −3.93%
- ^238Pu percent tissue reduction, Kidney [7]: 11.13%
- ^238Pu percent tissue reduction, Liver [7]: 44.57%
- ^238Pu percent tissue reduction, Soft Tissue [7]: 17.40%
- ^238Pu percent tissue reduction, Total Body [7]: 43.17%
- ^238Pu percent tissue reduction, Total Bone [7]: 46.78%
- ^238Pu retention, GI Tract, Avg [8]: 0.75 percent recovered dose
- ^238Pu retention, Kidney, Avg [8]: 0.19 percent recovered dose
- ^238Pu retention, Liver, Avg [8]: 6.78 percent recovered dose
- ^238Pu retention, Soft Tissue, Avg [8]: 1.93 percent recovered dose
- ^238Pu retention, Total Body, Avg [8]: 27.67 percent recovered dose
- ^238Pu retention, Total Bone, Avg [8]: 18.02 percent recovered dose
- ^238Pu percent tissue reduction, GI Trace [8]: 49.06%
- ^238Pu percent tissue reduction, Kidney [8]: 32.19%
- ^238Pu percent tissue reduction, Liver [8]: 62.99%
- ^238Pu percent tissue reduction, Soft Tissue [8]: 32.01%
- ^238Pu percent tissue reduction, Total Body [8]: 48.44%
- ^238Pu percent tissue reduction, Total Bone [8]: 40.18%
- ^238Pu excretion, Total Excretion, Avg [9]: 72.33 percent recovered dose
- ^238Pu excretion, Total Feces, Avg [9]: 44.91 percent recovered dose
- ^238Pu excretion, Total Urine, Avg [9]: 27.43 percent recovered dose
- 238Pu percent increase in excretion, Total Excretion [9]: 156.10%
- 238Pu percent increase in excretion, Total Feces [9]: 200.32%
- 238Pu percent increase in excretion, Total Urine [9]: 114.39%
- ^238Pu retention, GI Tract, Avg [10]: 1.63 percent recovered dose
- ^238Pu retention, Kidney, Avg [10]: 0.25 percent recovered dose
- ^238Pu retention, Liver, Avg [10]: 12.44 percent recovered dose
- ^238Pu retention, Soft Tissue, Avg [10]: 2.22 percent recovered dose
- ^238Pu retention, Total Body, Avg [10]: 34.34 percent recovered dose
- ^238Pu retention, Total Bone, Avg [10]: 17.81 percent recovered dose
